Measured values reported in ChEMBL document CHEMBL4359857, “Design, synthesis and biological evaluation of chalcones as reversers of P-glycoprotein-mediated multidrug resistance” (Eur J Med Chem, 2019).

Assays:
[1] = system: MCF7-DOX; assay: Cytotoxicity against human MCF7/Dox cells assessed as reduction in cell viability after 48 hrs by MTT assay; format: cell-based
[2] = Cytotoxicity against human MCF7/Dox cells assessed as cell survival at 12.5 uM after 48 hrs by MTT assay relative to control; format: cell-based; conditions: read-out: Survival
[3] = Reversal of P-gp-mediated multidrug resistance in human MCF7/Dox cells assessed as potentiation of doxorubicin-induced cytotoxicity by measuring doxorubicin IC50 at 12.5 uM after 48 hrs by MTT assay (reference value: 51.19 +/- 0.95 microM)

Structure (SMILES) | IC50 [1] [µM] | viability at 48 h, 12.5 µM [2] [%] | IC50 [3] [µM]
COc1cc(OC)c(C(=O)/C=C/c2ccc(OC)c(OC)c2OC)c(O)c1CC=C(C)C | 62.6 | 91.9 | –
COc1cc(OC)c(C(=O)/C=C/c2cccc(N3CCN(C)CC3)c2)c(O)c1CC=C(C)C | > 100 | > 99 | 23.59
COc1ccc(/C=C/C(=O)c2c(OC)cc(OC)c(CC=C(C)C)c2O)cc1 | 46.9 | > 99 | –
CCCCCc1c(OC)cc(OC)c(C(=O)/C=C/c2cccc(N3CCNCC3)c2)c1O | > 100 | 93.6 | –
COc1cccc(/C=C/C(=O)c2c(OC)cc(OC)c(CC=C(C)C)c2O)c1 | 49.2 | > 99 | –
COc1cc(O)c(C(=O)/C=C/c2cccc(N3CCNCC3)c2)c(OC)c1 | 99.2 | > 99 | –
CCCc1c(OC)cc(OC)c(C(=O)/C=C/c2cccc(N3CCNCC3)c2)c1O | > 100 | > 99 | –
CCCCc1c(OC)cc(OC)c(C(=O)/C=C/c2cccc(N3CCNCC3)c2)c1O | > 100 | 91.6 | –
COc1cc(O)c(C(=O)/C=C/c2cccc(N3CCN(C(=O)c4ccc(OC)c(OC)c4)CC3)c2)c(OC)c1 | > 100 | > 99 | –
COc1cc(OC)c(C(=O)/C=C/c2ccccc2)c(O)c1CC=C(C)C | 65.4 | 90.6 | 20.64
COc1cc(OC)c(C(=O)/C=C/c2cccc(F)c2)c(O)c1CC=C(C)C | 45.4 | 92.7 | –
COc1cc(OC)c(C(=O)/C=C/c2ccc(F)cc2)c(O)c1CC=C(C)C | 53.7 | 94.3 | 17.96
COc1cc(OC)c(C(=O)/C=C/c2cccc(C(F)(F)F)c2)c(O)c1CC=C(C)C | 66.6 | 91.6 | –
COc1cc(O)c(C(=O)/C=C/c2cccc(N3CCOCC3)c2)c(OC)c1 | > 100 | > 99 | –
COc1cc(O)c(C(=O)/C=C/c2cccc(N3CCN(C(=O)OC(C)(C)C)CC3)c2)c(OC)c1 | 56.7 | 85.4 | 39.95
COc1ccc(C(=O)/C=C/c2cccc(N3CCNCC3)c2)c(OC)c1 | 95 | 96.4 | –
COc1cc(OC)c(C(=O)/C=C/c2ccc(Cl)cc2)c(O)c1CC=C(C)C | 43.4 | 90.1 | –
